“And” between values parts separate entries of the source, which are not always exact repeats. Identical values can stand only once. Like-named read-outs stand apart in the source and are kept apart here.
Test system: 60 cancer cell lines (NCI 60 cancer cell line series)
Assay: NCI-DTP in vitro cancer screen, sulforhodamine B (SRB) growth inhibition, 48 hour exposure
Format: cell-based, human
Method: Cancer Cell Line Preparation. Sixty cancer cell lines were obtained from the National Cancer Institute Developmental Therapeutics Program (NCI-DTP). Procedures for growing cells and testing compounds have been described previously (Scudiero et al., Cancer Res. 1988, 48:4827-4833; Stinson et al., Anticancer Res.; Myers et al., Electrophoresis 1997, 18:647-653). Cells are plated on day 0 at a density individualized for each cell line so that they will generally be sub-confluent at the end of the assay period. On day 1, a compound is added in the format for a duplicate-well, 5-dose, ten-fold interval dose response study.
No-drug, no-cell and no-growth controls are included. On day 3 the cells are processed for staining with sulforhodamine B (SRB), which reflects the amount of cell mass present at the end of a 48 hour exposure to the test agent. From dose response curves based on the SRB data, various parameters can be determined. The one used in the present study is the G15o, defined as the concentration of compound required to inhibit growth of the cell line by 50%. More precisely, the quantity used in the calculation to be described is the potency measure -log{GI50}.
Activity database (A). Table IA, consisting of the growth inhibition (GI5o) values for the 60 cell lines and 24 compounds, was created from the NCI-DTP in vitro cancer screen database. This subset of compounds was selected from the larger 23,000 compound database available from the DTP. The compounds were selected on the basis of their known mechanism of action and chemical structure. The average potency—log{GI50} was extracted from the comma-delimited text files available through the Web at http://www.nci.nih.gov/intra/lmp/jnwbio.htmrl. Subsequently, these log{GI5o} values were inspected manually and classified as indicating either Low, Medium or High sensitivity to each compound.

## COc1cccc2c1C(=O)c1c(O)c3c(c(O)c1C2=O)C[C@@](O)(C(=O)CO)C[C@@H]3O[C@H]1C[C@H](N)C[C@H](C)O1 [Deoxydoxorubicin]
Breast BT-549 (CL5013)
  classification of cell line as Low(1), Medium(2) or High(3) sensitivity to compound: 2
Breast MCF7/ADRr (CL5002)
  classification of cell line as Low(1), Medium(2) or High(3) sensitivity to compound: 1
Breast MDA-N CL5012
  classification of cell line as Low(1), Medium(2) or High(3) sensitivity to compound: 2
CNS SF-268 CL12014
  classification of cell line as Low(1), Medium(2) or High(3) sensitivity to compound: 2
CNS SF-295 CL12015
  classification of cell line as Low(1), Medium(2) or High(3) sensitivity to compound: 2
CNS SF-539 CL12016
  classification of cell line as Low(1), Medium(2) or High(3) sensitivity to compound: 2
CNS SNB-19 (CL12002)
  classification of cell line as Low(1), Medium(2) or High(3) sensitivity to compound: 2
CNS SNB-75(I) CL12005
  classification of cell line as Low(1), Medium(2) or High(3) sensitivity to compound: 2
CNS U251(I) CL12009
  classification of cell line as Low(1), Medium(2) or High(3) sensitivity to compound: 2
Colon COLO-250 CL4010
  classification of cell line as Low(1), Medium(2) or High(3) sensitivity to compound: 2
Colon HCT-15 CL4015
  classification of cell line as Low(1), Medium(2) or High(3) sensitivity to compound: 1
Colon HT29(I) CL4001
  classification of cell line as Low(1), Medium(2) or High(3) sensitivity to compound: 2
Colon KM12 (CL4017)
  classification of cell line as Low(1), Medium(2) or High(3) sensitivity to compound: 2
Leukemia CCRF-CEM(I) (CL7003)
  classification of cell line as Low(1), Medium(2) or High(3) sensitivity to compound: 2
Leukemia K562(I) CL7005
  classification of cell line as Low(1), Medium(2) or High(3) sensitivity to compound: 2
Leukemia RPMI-8226(I) (CL7010)
  classification of cell line as Low(1), Medium(2) or High(3) sensitivity to compound: 2
Leukemia SR CL7019
  classification of cell line as Low(1), Medium(2) or High(3) sensitivity to compound: 3
Melanoma LOX IMVI CL10001
  classification of cell line as Low(1), Medium(2) or High(3) sensitivity to compound: 2
Melanoma M14 (CL10014)
  classification of cell line as Low(1), Medium(2) or High(3) sensitivity to compound: 2
Melanoma MALME-3M CL10002
  classification of cell line as Low(1), Medium(2) or High(3) sensitivity to compound: 2
Cell line NSCLC NCI-H23(I), CL1001
  sensitivity class NSCLC NCI-H23(I) CL1001: 2
Cell line NSCLC NCI-H522, CL1003
  sensitivity class NSCLC NCI-H522 CL1003: 2
Cell line Ovarian IGROV1, CL6010
  sensitivity class Ovarian IGROV1 CL6010: 2
Cell line Ovarian OVCAR-3, CL6001
  sensitivity class Ovarian OVCAR-3 CL6001: 2
Cell line Ovarian OVCAR-4, CL6002
  sensitivity class Ovarian OVCAR-4 CL6002: 2
Cell line Ovarian OVCAR-8, CL6005
  sensitivity class Ovarian OVCAR-8 CL6005: 2
Cell line Ovarian SK-OV-3, CL6011
  sensitivity class Ovarian SK-OV-3 CL6011: 2
Cell line Prostate DU-145, CL11003
  sensitivity class Prostate DU-145 CL11003: 2
Cell line Prostate PC-3(I), CL11001
  sensitivity class Prostate PC-3(I) CL11001: 2
Cell line Renal A498, CL9013
  sensitivity class Renal A498 CL9013: 2
Cell line Renal SN12C, CL9008
  sensitivity class Renal SN12C CL9008: 2
Cell line Renal TK10, CL9024
  sensitivity class Renal TK10 CL9024: 1
Cell line Renal UO-31, CL9004
  sensitivity class Renal UO-31 CL9004: 1
Number of the 60 cell lines classified High (3) sensitivity
  3 # of High: 7

## CC(=O)O[C@H]1C(=O)[C@@]2(C)[C@H]([C@H](OC(=O)c3ccccc3)[C@]3(O)C[C@H](OC(=O)[C@H](O)[C@@H](NC(=O)c4ccccc4)c4ccccc4)C(C)=C1C3(C)C)[C@]1(OC(C)=O)CO[C@@H]1C[C@@H]2O [TAXOL, paclitaxel, reference compound]
  classification of cell line as Low(1), Medium(2) or High(3) sensitivity to compound: 2 and 1 and 3
  sensitivity class NSCLC NCI-H23(I) CL1001: 2
  sensitivity class NSCLC NCI-H332M CL1017: 2
  sensitivity class Ovarian IGROV1 CL6010: 2
  sensitivity class Ovarian OVCAR-4 CL6002: 1
  sensitivity class Ovarian OVCAR-8 CL6005: 2
  sensitivity class Ovarian SK-OV-3 CL6011: 2
  sensitivity class Prostate DU-145 CL11003: 2
  sensitivity class Prostate PC-3(I) CL11001: 2
  sensitivity class Renal 786-O CL9018: 2
  sensitivity class Renal ACHN CL9023: 1
  sensitivity class Renal CAKI-1 CL9015: 1
  sensitivity class Renal RXF-393 CL9016: 2
  sensitivity class Renal SN12C CL9008: 2
  sensitivity class Renal UO-31 CL9004: 1
  sensitivity class of the cell line to the compound (1 Low, 2 Medium, 3 High): 1 and 3 and 2

## COc1cccc2c1C(=O)c1c(O)c3c(c(O)c1C2=O)C[C@@](O)(C(=O)CO)C[C@@H]3O[C@H]1C[C@H](N)[C@H](O)[C@H](C)O1 [Adrlamycin]
Breast BT-549 (CL5013)
  classification of cell line as Low(1), Medium(2) or High(3) sensitivity to compound: 2
Breast HS-578T CL5006
  classification of cell line as Low(1), Medium(2) or High(3) sensitivity to compound: 2
Breast MCF7(I) (CL5001)
  classification of cell line as Low(1), Medium(2) or High(3) sensitivity to compound: 3
Breast MCF7/ADRr (CL5002)
  classification of cell line as Low(1), Medium(2) or High(3) sensitivity to compound: 1
Breast MDA-MB-231 CL5005
  classification of cell line as Low(1), Medium(2) or High(3) sensitivity to compound: 2
Breast MDA-MB-435 (CL5011)
  classification of cell line as Low(1), Medium(2) or High(3) sensitivity to compound: 2
Breast MDA-N CL5012
  classification of cell line as Low(1), Medium(2) or High(3) sensitivity to compound: 2
Breast T-47D (CL5014)
  classification of cell line as Low(1), Medium(2) or High(3) sensitivity to compound: 2
CNS SF-268 CL12014
  classification of cell line as Low(1), Medium(2) or High(3) sensitivity to compound: 2
CNS SF-295 CL12015
  classification of cell line as Low(1), Medium(2) or High(3) sensitivity to compound: 2
